# Experimental data taken from ChEMBL document CHEMBL5335821, “Antiviral Protein-Protein Interaction Inhibitors” (J Med Chem, 2024).
# Where a SMILES comes first, the peptide text is derived from it.
# Assays:
# [1] = test system: dengue virus type 2; assay: Antiviral activity agaisnt DENV-2 strain New Guinea C infected with hamster BHK-21 cells assessed as reduction in viral growth; type: functional, organism-based
# [2] = test system: Ebolavirus; assay: Antiviral activity against Ebola virus infected in human HeLa cells assessed as reduction in viral cytopathic effect; type: functional, organism-based; conditions: Orthoebolavirus
# [3] = test system: Hepatitis C virus; assay: Antiviral activity against HCV infected in human Huh-7 cells assessed as reduction in viral replication; type: functional, organism-based, Hepacivirus hominis
# [4] = Inhibition of HCV RNA; type: functional, Hepacivirus hominis
# [5] = test system: Ebolavirus; assay: Antiviral activity against pseudotyped Ebola virus infected in HeLa cells assessed as reduction in viral infection incubated for 48 hrs by firefly luciferase assay; type: functional, organism-based; conditions: Orthoebolavirus
# [6] = test system: Hepatitis C virus; assay: Antiviral activity against HCV infected in Huh-7 assessed as inhibition of HCV RNA replication at 5 nM relative to control; type: functional, Hepacivirus hominis; set-up: scale not given: the % may be the effect or the level left
# [7] = Inhibition of MERS-CoV Main protease; set-up: species or system Middle East respiratory syndrome-related coronavirus
# [8] = molecular target: Replicase polyprotein 1ab (Severe acute respiratory syndrome-related coronavirus, UniProt P0C6X7); assay: Inhibition of SARS-CoV-1 Main Protease
# [9] = molecular target: Replicase polyprotein 1ab (Severe acute respiratory syndrome coronavirus 2, UniProt P0DTD1); assay: Inhibition of SARS-CoV-2 main protease
# [10] = molecular target: Spike glycoprotein/Angiotensin-converting enzyme 2 (Severe acute respiratory syndrome coronavirus 2, UniProt P0DTC2+Q9BYF1); assay: Inhibition of SARS-CoV-2 spike protein RBD- human ACE2 interaction incubated for 1 hr by colorimetric ELISA assay
# Spike glycoprotein/Angiotensin-converting enzyme 2, sequence (Q9BYF1 18-805 limits assumed, other chains not shown): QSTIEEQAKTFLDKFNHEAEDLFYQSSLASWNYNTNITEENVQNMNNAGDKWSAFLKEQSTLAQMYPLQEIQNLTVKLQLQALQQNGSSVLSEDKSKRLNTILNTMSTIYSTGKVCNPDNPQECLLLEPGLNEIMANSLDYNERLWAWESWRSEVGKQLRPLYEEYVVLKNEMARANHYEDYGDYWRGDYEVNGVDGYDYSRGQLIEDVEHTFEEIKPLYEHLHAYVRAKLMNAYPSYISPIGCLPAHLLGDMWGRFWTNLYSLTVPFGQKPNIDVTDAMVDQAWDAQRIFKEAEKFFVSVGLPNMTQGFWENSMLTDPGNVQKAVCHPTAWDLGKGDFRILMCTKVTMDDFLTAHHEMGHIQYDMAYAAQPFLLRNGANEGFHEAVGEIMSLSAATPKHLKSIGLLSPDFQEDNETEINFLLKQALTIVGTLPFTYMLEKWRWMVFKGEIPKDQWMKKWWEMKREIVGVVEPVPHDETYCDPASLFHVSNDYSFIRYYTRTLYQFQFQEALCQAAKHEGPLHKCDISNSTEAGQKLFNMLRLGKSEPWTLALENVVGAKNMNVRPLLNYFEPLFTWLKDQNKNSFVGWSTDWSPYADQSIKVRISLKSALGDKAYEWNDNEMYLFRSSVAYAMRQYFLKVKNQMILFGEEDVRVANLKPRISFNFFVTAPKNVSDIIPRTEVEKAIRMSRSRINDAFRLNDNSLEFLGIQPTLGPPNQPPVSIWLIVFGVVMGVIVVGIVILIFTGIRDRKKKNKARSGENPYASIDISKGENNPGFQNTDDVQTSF
# [11] = test system: Chikungunya virus; assay: Antiviral activity against CHIKV infected in HEK293T cells; type: functional, organism-based; conditions: HEK-293T
# [12] = test system: Hepatitis C virus; assay: Antiviral activity against HCV infected in human Huh-7.5.1 cells assessed as reduction in viral infection incubated for 48 hrs; type: functional, organism-based, Hepacivirus hominis; conditions: Huh-7.5.1, 48 h
# [13] = test system: Hepatitis C virus; assay: Antiviral activity against HCV infected in Huh-7 assessed as reduction in viral RNA replication at 0.5 nM relative to control; type: functional, Hepacivirus hominis; set-up: scale not given: the % may be the effect or the level left
# [14] = test system: Hepatitis C virus; assay: Antiviral activity against HCV infected in human Huh7.5.1 cells assessed as decrease in viral infection; type: functional, organism-based, Hepacivirus hominis; conditions: Huh-7.5.1
# [15] = test system: Chikungunya virus; assay: Antiviral activity against CHIKV infected in Vero 76 cells assessed as reduction in cytopathic effect; type: functional, organism-based
# [16] = test system: SARS-CoV-2; assay: Antiviral activity against SARS-CoV-2; type: functional, organism-based, Severe acute respiratory syndrome coronavirus 2
molecule,measurement,setting,value
Clc1ccc(-c2ccc(-c3nc(NCc4cccnc4)nc4ccccc34)s2)cc1,EC50,[1],68 nM
COC(=O)c1ccc(COc2ccccc2CN2CCN(C(=O)CNC(=O)CC34CC5CC(CC(C5)C3)C4)CC2)cc1,IC50,[2],130 nM
O=C(CC12CC3CC(CC(C3)C1)C2)NCC(=O)N1CCN(Cc2ccccc2)CC1,IC50,[2],1600 nM
C[C@H]1O[C@@H](O[C@H]2CC[C@@]3(C)[C@@H](CC[C@]4(C)[C@@H]3C=CC3=C5CC(C)(C)CC[C@]5(CO)[C@H](O)C[C@]34C)[C@]2(C)CO)[C@H](O)[C@@H](O[C@@H]2O[C@H](CO)[C@@H](O)[C@H](O)[C@H]2O)[C@H]1O,EC50,[3],20.7 µM
COc1cc(C[C@@]2(O)C(=O)OC[C@@H]2Cc2ccc(OC)c(OC)c2)ccc1O,IC50,[4],670 nM
FC(C1=Nc2ccccc2N=C(c2ccccc2)C1)C(F)(F)F (stereo not given),IC50,[5],10 µM
CSCC[C@H](NC(=O)[C@H](Cc1c[nH]c2ccccc12)NC(=O)[C@@H](NC(=O)[C@H](CS)NC(=O)CNC(=O)[C@H](Cc1ccccc1)NC(=O)[C@H](Cc1c[nH]c2ccccc12)NC(=O)[C@H](CO)NC(=O)CNC(=O)[C@@H](N)CCC(N)=O)[C@@H](C)O)C(=O)N[C@@H](CC(N)=O)C(=O)N[C@@H](CO)C(=O)N[C@H](C(=O)NCC(=O)N[C@@H](Cc1ccccc1)C(=O)O)[C@@H](C)O,Activity,[6],50%
Cc1cc2nc3s/c(=C/c4ccc(-c5cccc(C(=O)O)c5)o4)c(=O)n3c2cc1C,IC50,[7],75 nM
same,IC50,[8],59 nM
same,IC50,[9],55 nM
CN1C(=O)c2ccccc2[S+]([O-])c2cc([N+](=O)[O-])ccc2S1(=O)=O (stereo not given),IC50,[10],670 nM
COc1cc(OC)c2c(c1)O[C@@]1(c3ccc(Br)cc3)[C@H](c3ccccc3)C[C@@H](O)[C@@]21O,IC50,[11],22.4 nM
CC[C@H](C)[C@H](NC(=O)[C@H](C)NC(=O)[C@H](Cc1c[nH]c2ccccc12)NC(=O)[C@H](CO)NC(=O)[C@H](C)N)C(=O)N[C@@H](CCCCN)C(=O)N[C@@H](Cc1c[nH]c2ccccc12)C(=O)N[C@@H](CCC(=O)O)C(=O)N[C@@H](Cc1ccc(O)cc1)C(=O)N[C@H](C(=O)N[C@H](C(=O)N[C@@H](CC(C)C)C(=O)N[C@@H](CC(C)C)C(=O)N[C@@H](Cc1ccccc1)C(=O)N[C@@H](CC(C)C)C(=O)N[C@@H](CC(C)C)C(=O)O)C(C)C)C(C)C (H-ASWAIKWEYVVLLFLL-OH),IC50,[12],51 µM
same,Activity,[13],60%
CC(C)[C@H](NC(=O)[C@H](Cc1c[nH]c2ccccc12)NC(=O)[C@@H](NC(=O)[C@H](C)N)[C@@H](C)O)C(=O)N[C@@H](CS)C(=O)NCC(=O)N1CCC[C@H]1C(=O)N[C@@H](CS)C(=O)N[C@H](C(=O)O)[C@@H](C)O (H-ATWVCGPCT-OH),IC50,[14],5.5 µM
COc1ccc2cc3[n+](cc2c1OC)CCc1cc2c(cc1-3)OCO2 [BERBERINE],EC50,[3],7.87 µM
COc1c(NC(=O)C(=O)c2ccc(OCCN3CCOCC3)c3ccccc23)cc(C(C)(C)C)cc1NS(C)(=O)=O [ITX-5061 FREE BASE],EC50,[3],0.0001 µM
Cc1ccc(C(=O)Nc2ccc(S(=O)(=O)O)c3cc(S(=O)(=O)O)cc(S(=O)(=O)O)c23)cc1NC(=O)c1cccc(NC(=O)Nc2cccc(C(=O)Nc3cc(C(=O)Nc4ccc(S(=O)(=O)O)c5cc(S(=O)(=O)O)cc(S(=O)(=O)O)c45)ccc3C)c2)c1 [SURAMIN],IC50,[15],5.68 µM
CCOC(=O)c1c(CSc2ccccc2)n(C)c2cc(Br)c(O)c(CN(C)C)c12 [UMIFENOVIR],IC50,[15],< 20.9 µM
IVERMECTIN,EC50,[16],4.11 µM
